Experimental data: patent US10786485B1, “Charged ion channel blockers and methods for use” (Nocion Therapeutics, Inc., priority 2019, dated 2020)
Counter-ions that a name gives are not always drawn.

Key:
[1] = molecular target: T1, NaV1.7 (Homo sapiens, UniProt Q15858); test: Whole cell patch clamp, internal block of Nav1.7 current; format: cell-based; conditions: test concentration of 10 μM; compound dissolved in internal solution; 5 Hz stimulation; read-out: Nav1.7 intracellular inhibition
T1 construct: expressed in transfected cells; host or cells: tetracycline-inducible cell line kept under hygromycin and blasticidin
Experimental: NaV1.7 was expressed upon induction with tetracycline. Cells were cultured in DMEM containing 10% dialyzed Fetal Bovine Serum (VWR, Radnor, Pa.), 1% Glutamax (VWR, Radnor, Pa.), 1% Penicillin-Streptomycin (VWR, Radnor, Pa.), 100 mg/L Hygromycin (Thermo Fisher Scientific, Waltham, Mass. and 5 mg/L Blasticidin (Alfa Aesar, Haverhill, Mass.). Cells were grown and maintained at 37° C. in a humidified environment containing 10% CO2 in air. Cells were detached from the culture flask for passage and harvested using 0.05% Trypsin-EDTA (Thermo Fisher Scientific, Waltham, Mass.). To induce NaV1.7, cells were induced with tetracycline (0.1-1 μg/mL, IBI Scientific, Peosta, Iowa) the day before recording and plated onto 24-well plates. […] For one 24-well plate, 2 mL of cell suspension was mixed with 23 mL of fresh growth media and 0.1-1 μg/mL tetracycline added. 1 ml of mixed media with cells was then added to each well of a 24-well plate, with a 12 mm coverslip already placed in the bottom of the well. Cells were then incubated in 37° C. and 10% CO2 overnight. The intracellular solution contained the following (in mM) CsCl 135, NaCl 10, EGTA 10, HEPES 10, MgCl2 2, adjusted to pH 7.2 with CsOH. The external solution was a normal Ringer solution containing (in mM) NaCl 155, HEPES 10, glucose 10, KCl 3.5, CaCl2 1.5, MgCl2 1 adjusted to pH 7.4 with NaOH. CsCl is from Alfa Aesar, Haverhill, Mass. All other chemicals are from Sigma-Aldrich, St. Louis, Mo. In order to test the degree of internal block by test compounds the compounds were dissolved in internal solution at the indicated test concentration. […] In order to test the degree of external block by test compounds the compounds were dissolved in external solution at the indicated test concentration. 18-24 hours after cells were induced with tetracycline, coverslips were placed into a chamber filled with Normal Ringer solution at room temperature and the chamber placed on a microscope. Pipettes were pulled from borosilicate glass on a P97 puller (Sutter Instrument, Novato, Calif.) and polished with a MF-830 Microforge (Narishige International USA, Inc, Amityville, N.Y.) to have a resistance of 1.5-2.5 MΩ when filled with CsCl internal solution at room temperature. Healthy cells (those that are round and translucent with no visible blemishes) were chosen for seal formation. A seal was formed between the pipette and the cell, and a brief pulse of suction was used to “break in” and establish the whole-cell configuration. The membrane potential was held at −100 mV before the voltage protocol began. Only cells with series resistance between 1.5-5 MΩ were retained for analysis. The voltage protocol was as follows: Cells were held at −100 mV for 12 ms followed by a hyperpolarizing step to −105 mV for 12 ms to monitor the leak. Cells were then stepped back to −100 mV for 40 ms. Cells were then depolarized to −20 mV for 10 ms and then returned to −100 mV for 26 ms (The FIGURE). Once the recording was started, the voltage protocol was run at 30 second intervals for 5 minutes to get a stable baseline. […] Currents were recorded using PatchMaster software with Heka EPC10 (HEKA Electronics, Lambrecht, Germany). […] The data was plotted using the Patchmaster software (HEKA Electronics, Lambrecht, Germany) and analyzed by plotting the minimum current during the voltage step to −20 mV (peak inward current) as a function of time. […]

[2] = molecular target: T1, NaV1.7; test: Whole cell patch clamp, external block of Nav1.7 current; format: cell-based; conditions: test concentration of 30 μM; compound in external solution for 5 minutes; 5 Hz stimulation; read-out: Nav1.7 extracellular inhibition
Experimental: NaV1.7 was expressed upon induction with tetracycline. Cells were cultured in DMEM containing 10% dialyzed Fetal Bovine Serum (VWR, Radnor, Pa.), 1% Glutamax (VWR, Radnor, Pa.), 1% Penicillin-Streptomycin (VWR, Radnor, Pa.), 100 mg/L Hygromycin (Thermo Fisher Scientific, Waltham, Mass. and 5 mg/L Blasticidin (Alfa Aesar, Haverhill, Mass.). Cells were grown and maintained at 37° C. in a humidified environment containing 10% CO2 in air. Cells were detached from the culture flask for passage and harvested using 0.05% Trypsin-EDTA (Thermo Fisher Scientific, Waltham, Mass.). To induce NaV1.7, cells were induced with tetracycline (0.1-1 μg/mL, IBI Scientific, Peosta, Iowa) the day before recording and plated onto 24-well plates. […] For one 24-well plate, 2 mL of cell suspension was mixed with 23 mL of fresh growth media and 0.1-1 μg/mL tetracycline added. 1 ml of mixed media with cells was then added to each well of a 24-well plate, with a 12 mm coverslip already placed in the bottom of the well. Cells were then incubated in 37° C. and 10% CO2 overnight. The intracellular solution contained the following (in mM) CsCl 135, NaCl 10, EGTA 10, HEPES 10, MgCl2 2, adjusted to pH 7.2 with CsOH. The external solution was a normal Ringer solution containing (in mM) NaCl 155, HEPES 10, glucose 10, KCl 3.5, CaCl2 1.5, MgCl2 1 adjusted to pH 7.4 with NaOH. CsCl is from Alfa Aesar, Haverhill, Mass. All other chemicals are from Sigma-Aldrich, St. Louis, Mo. In order to test the degree of internal block by test compounds the compounds were dissolved in internal solution at the indicated test concentration. […] In order to test the degree of external block by test compounds the compounds were dissolved in external solution at the indicated test concentration. 18-24 hours after cells were induced with tetracycline, coverslips were placed into a chamber filled with Normal Ringer solution at room temperature and the chamber placed on a microscope. Pipettes were pulled from borosilicate glass on a P97 puller (Sutter Instrument, Novato, Calif.) and polished with a MF-830 Microforge (Narishige International USA, Inc, Amityville, N.Y.) to have a resistance of 1.5-2.5 MΩ when filled with CsCl internal solution at room temperature. Healthy cells (those that are round and translucent with no visible blemishes) were chosen for seal formation. A seal was formed between the pipette and the cell, and a brief pulse of suction was used to “break in” and establish the whole-cell configuration. The membrane potential was held at −100 mV before the voltage protocol began. Only cells with series resistance between 1.5-5 MΩ were retained for analysis. The voltage protocol was as follows: Cells were held at −100 mV for 12 ms followed by a hyperpolarizing step to −105 mV for 12 ms to monitor the leak. Cells were then stepped back to −100 mV for 40 ms. Cells were then depolarized to −20 mV for 10 ms and then returned to −100 mV for 26 ms (The FIGURE). Once the recording was started, the voltage protocol was run at 30 second intervals for 5 minutes to get a stable baseline. This is followed by 5 Hz stimulation of the same voltage protocol run until the end of experiment. […] Currents were recorded using PatchMaster software with Heka EPC10 (HEKA Electronics, Lambrecht, Germany). […] The data was plotted using the Patchmaster software (HEKA Electronics, Lambrecht, Germany) and analyzed by plotting the minimum current during the voltage step to −20 mV (peak inward current) as a function of time. […]

[3] = PAMPA membrane permeability assay; format: in vitro ADME; conditions: GIT lipid, buffer pH 7.4, incubated 4 hours
Experimental: The PAMPA assay (pION, Inc., Woburn Mass.) was used to determine the ability of compounds of the invention to cross an artificial lipid membrane by passive diffusion. Test compounds were dissolved in DMSO (10 mM) and diluted 200-fold in buffer (pION Inc., pH 7.4) to provide 50 uM stock solutions. Buffer (150 μL) was added to a UV blank plate and stock solutions (150 μL) were transferred to a UV reference plate. The blank and reference spectrum were read using a spectrophotometer. Stock solutions (200 μL) were added to the donor plate of the PAMPA sandwich plate and an accept plate painted with GIT lipid (pION Inc, 5 μL) was placed on top. Buffer (200 μL) was added to the acceptor plate and the PAMPA sandwich plate was incubated for 4 hours. Aliquots (150 μL) from the acceptor plate were added to a UV plate and read as acceptor spectrum. Aliquots (150 μL) of the donor solutions were added to a UV analysis plate and read as donor spectrum. The permeability coefficient of test compounds was calculated using PAMPA Explorer™ software (version 3.5.0.4) based on the AUC of the reference plate, the donor plate, and the acceptor plate.

T1 sequence (Q15858 whole entry): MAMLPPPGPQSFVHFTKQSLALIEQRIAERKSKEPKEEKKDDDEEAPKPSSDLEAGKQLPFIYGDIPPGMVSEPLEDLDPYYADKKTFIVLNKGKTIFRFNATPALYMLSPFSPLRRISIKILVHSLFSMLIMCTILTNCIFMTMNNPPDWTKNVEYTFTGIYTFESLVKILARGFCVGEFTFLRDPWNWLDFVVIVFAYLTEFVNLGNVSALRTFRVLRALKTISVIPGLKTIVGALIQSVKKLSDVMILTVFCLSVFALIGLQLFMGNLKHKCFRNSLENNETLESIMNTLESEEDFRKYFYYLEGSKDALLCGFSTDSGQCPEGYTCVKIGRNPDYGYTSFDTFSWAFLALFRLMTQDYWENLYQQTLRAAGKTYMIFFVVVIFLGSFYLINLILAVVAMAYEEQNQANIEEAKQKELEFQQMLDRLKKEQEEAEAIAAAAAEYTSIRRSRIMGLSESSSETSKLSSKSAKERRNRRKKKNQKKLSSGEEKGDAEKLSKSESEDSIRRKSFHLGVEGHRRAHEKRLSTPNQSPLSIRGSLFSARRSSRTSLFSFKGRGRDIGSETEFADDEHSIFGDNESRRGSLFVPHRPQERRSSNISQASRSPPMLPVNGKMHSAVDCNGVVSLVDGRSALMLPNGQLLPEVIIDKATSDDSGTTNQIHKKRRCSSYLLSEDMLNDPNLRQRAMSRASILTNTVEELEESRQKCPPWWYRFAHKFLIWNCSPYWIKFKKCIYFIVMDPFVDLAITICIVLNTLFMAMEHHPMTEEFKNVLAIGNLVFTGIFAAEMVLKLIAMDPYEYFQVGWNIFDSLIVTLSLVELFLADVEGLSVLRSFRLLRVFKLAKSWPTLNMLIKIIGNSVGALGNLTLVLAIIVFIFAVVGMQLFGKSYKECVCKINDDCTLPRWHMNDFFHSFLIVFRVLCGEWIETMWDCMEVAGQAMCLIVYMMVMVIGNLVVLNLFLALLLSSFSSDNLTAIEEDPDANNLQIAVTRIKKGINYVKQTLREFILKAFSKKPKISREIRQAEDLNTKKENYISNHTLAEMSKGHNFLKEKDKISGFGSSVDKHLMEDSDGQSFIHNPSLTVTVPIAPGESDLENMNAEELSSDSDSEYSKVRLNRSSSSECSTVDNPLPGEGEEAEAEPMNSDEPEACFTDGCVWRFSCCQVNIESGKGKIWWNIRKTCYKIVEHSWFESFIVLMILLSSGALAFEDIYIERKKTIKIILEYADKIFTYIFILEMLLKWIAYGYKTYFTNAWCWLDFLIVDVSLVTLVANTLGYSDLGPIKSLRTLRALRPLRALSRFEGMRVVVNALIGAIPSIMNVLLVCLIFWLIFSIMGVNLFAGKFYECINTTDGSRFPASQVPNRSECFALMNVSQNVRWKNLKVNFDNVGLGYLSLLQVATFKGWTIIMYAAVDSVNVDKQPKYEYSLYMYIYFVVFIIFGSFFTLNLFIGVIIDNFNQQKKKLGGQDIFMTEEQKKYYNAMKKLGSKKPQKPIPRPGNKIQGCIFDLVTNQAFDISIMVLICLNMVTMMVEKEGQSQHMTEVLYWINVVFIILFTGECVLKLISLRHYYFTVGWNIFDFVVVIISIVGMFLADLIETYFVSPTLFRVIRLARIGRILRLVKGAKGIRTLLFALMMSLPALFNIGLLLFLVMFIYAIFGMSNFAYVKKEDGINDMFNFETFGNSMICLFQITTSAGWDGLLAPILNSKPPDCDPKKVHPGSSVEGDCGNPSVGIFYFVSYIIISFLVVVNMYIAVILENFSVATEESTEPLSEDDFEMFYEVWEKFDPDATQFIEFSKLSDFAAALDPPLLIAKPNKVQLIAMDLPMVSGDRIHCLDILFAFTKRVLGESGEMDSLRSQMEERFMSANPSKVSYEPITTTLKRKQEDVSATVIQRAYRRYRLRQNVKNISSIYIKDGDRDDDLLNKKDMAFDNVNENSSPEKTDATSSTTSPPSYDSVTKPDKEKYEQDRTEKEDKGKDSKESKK

Row | SMILES | inhibition at 10 µM [1] | inhibition at 30 µM [2] | Papp at 4 h, 50 µM [3]
1 | Cc1cn(C)[n+](CC(=O)Nc2c(C)cccc2C)c1 [1′A, 2-(2-((2,6-dimethylphenyl)amino)-2-oxoethyl)-1,4-dimethyl-1H-pyrazol-2-ium bromide] | > 65% | < 25% | –
2 | Cc1cccc(C)c1NC(=O)C[n+]1cccn1-c1ccccc1 [4′A, 2-(2-((2,6-dimethylphenyl)amino)-2-oxoethyl)-1-phenyl-1H-pyrazol-2-ium Formate] | > 65% | < 25% | –
3 | Cc1cccc(C)c1NC(=O)C[n+]1cccn1CC(C)C.[Br-] [Compound 2′A, 2-(2-((2,6-dimethylphenyl)amino)-2-oxoethyl)-1-isobutyl-1H-pyrazol-2-ium bromide] | > 65% | < 25% | ≤ 1.2 ×10⁻⁶ cm/s
4 | Cc1cccc(C)c1NC(=O)C[n+]1cccn1C1CCCCC1.[Br-] [Compound 3′A, 1-cyclohexyl-2-(2-((2,6-dimethylphenyl)amino)-2-oxoethyl)-1H-pyrazol-2-ium bromide] | > 65% | < 25% | ≤ 1.2 ×10⁻⁶ cm/s
5 | CCNC(=O)Cn1ccc[n+]1CC(=O)Nc1c(C)cccc1C.[Br-] [Compound 5′A, 2-(2-((2,6-dimethylphenyl)amino)-2-oxoethyl)-1-(2-(ethylamino)-2-oxoethyl)-1H-pyrazol-2-ium bromide] | > 65% | < 25% | ≤ 1.2 ×10⁻⁶ cm/s
